Data taken from US9738768B2, “Blowing agent composition of hydrochlorofluoroolefin” (Arkema Inc., priority 2007, dated 2017).

Tests used:
[1] = tested on: Salmonella typhimurium tester strains (TA1535, TA1537, TA98, TA100); assay: Ames bacterial reverse mutation assay, vapor-phase exposure by desiccator methodology; assay type: cell-based; details: for mutagenicity / toxicity of the single isomer as concluded from the Ames tests of mixture and purified material: conclusion from comparing the 71.2/28.5 trans/cis mixture with the 96.5 wt % trans material
Experimental: (§1) Toxological testing was undertaken as part of the evaluation of HCFO-1233zd as a blowing agent. Ames testing was performed on a blend of trans- and cis- HCFO-1233zd and purified trans- HCFO-1233zd. The Ames test is a study designed to determine if a material can interact with DNA and cause point mutations, i.e. to determine if a material is mutagenic. Many carcinogenic materials are also mutagenic and this assay is often used as a quick screen for potential to cause an adverse effect on genetic material. It utilizes several strains of bacteria (Salmonella typhimurium and E. coli) and is often routinely included when developing the toxicology profile of a substance. If a substance substantially increases the mutation rate in the bacterial tester strains, the study result is defined as positive and the test substance is considered to be mutagenic.
(§2) The purpose of the study was to evaluate the mutagenic potential of the test article vapor by measuring it ability to induce reverse mutations at selected loci of several stains of Salmonella typhimurium and at the tryptophan locus of Escherichia coli strains WP2 uvrA in the presence and absence of Aroclor-induced rat liver S9. The test system was exposed to the test article via desiccator methodology. For each replicate plating, the mean and standard deviation of the number of revertants per plate were calculated and reported. Negative and positive controls were also run.
(§3) For the test article to be evaluated positive, it must cause a dose-related increase in the mean revertants per plate of at least one tester strain over a minimum of two increasing concentrations of test article. Data for tester strains TA1535 and TA1537 were judged positive if the increase in mean revertants at the peak of the dose response is equal to or judged greater than 3.0-times the mean vehicle control value. Data sets for tester strains TA98, TA100 and WP2 uvrA were judged positive if the increase in mean revertants at the peak of the dose response is equal to or greater than 2.0-times the mean vehicle control value.

[2] = tested on: Escherichia coli strains WP2 uvrA (tryptophan locus); assay: as above; assay type: cell-based; details: E. coli WP2 uvrA
Experimental: as §1, §2, §3

SMILES | mutagenicity / toxicity of the single isomer as concluded from the Ames tests of mixture and purified material [1] | mutagenicity / toxicity of the single isomer as concluded from the Ames tests of mixture and purified material ([1]; listed as trans isomer) | Ames test result (mutagenic response) ([1]; Salmonella typhimurium tester strains, presence and absence of Aroclor-induced rat liver S9) | toxicity to tester strains ([1]; Salmonella typhimurium tester strains, with and without S9) | Ames test result (mutagenic response) ([2]; presence and absence of Aroclor-induced rat liver S9) | toxicity to tester strains ([2]; with and without S9)
FC(F)(F)/C=C/Cl [trans-isomer of 1-chloro-3,3,3-trifluoropropene, trans-1-chloro-3,3,3-trifluoropropene] | less toxic | significantly lower genotoxicity | – | – | – | –
FC(F)(F)/C=C\Cl [cis-isomer, cis-1-chloro-3,3,3-trifluoropropene] | active mutagenic agent | – | – | – | – | –
FC(F)(F)C=CCl [purified material, 1-chloro-3,3,3-trifluoropropene] | – | – | did not cause a positive mutagenic response | No toxicity was observed | did not cause a positive mutagenic response | No toxicity was observed
